{"source": "patent US20110039857A1", "about": "“PIPERIDINE AND PYROOLIDINE COMPOUNDS” (priority 2008, published 2011)", "key": {"human orexin-2 receptor": {"molecular_target": "T1, human orexin-2 receptor (Homo sapiens, UniProt O43614)", "T1 construct": "expressed in transfected cells; host or cells: CHO (Chinese hamster ovary) cells under G418 selection", "T1 sequence (O43614 1-444)": "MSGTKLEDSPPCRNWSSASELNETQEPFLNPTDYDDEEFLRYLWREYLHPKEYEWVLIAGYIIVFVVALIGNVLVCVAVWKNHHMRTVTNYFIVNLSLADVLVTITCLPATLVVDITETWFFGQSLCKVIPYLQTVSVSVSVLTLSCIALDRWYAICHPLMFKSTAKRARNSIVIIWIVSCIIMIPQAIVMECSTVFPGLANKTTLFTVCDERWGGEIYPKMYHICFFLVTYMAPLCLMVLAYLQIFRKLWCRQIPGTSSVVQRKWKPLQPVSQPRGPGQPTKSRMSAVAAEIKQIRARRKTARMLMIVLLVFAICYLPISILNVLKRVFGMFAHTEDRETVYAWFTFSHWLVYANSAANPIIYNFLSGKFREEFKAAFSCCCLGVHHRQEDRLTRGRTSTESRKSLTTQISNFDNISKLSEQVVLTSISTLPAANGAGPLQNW", "experiment": "Intracellular calcium measurements (FLIPR), orexin receptor antagonistic activity", "assay_type": "cell-based", "conditions": "CHO cells expressing human orexin-2 receptor; agonist 3 nM orexin-A; read-out: OX2 IC50", "experimental": "(§1) The orexin receptor antagonistic activity of the compounds of formula (I) is determined in accordance with the following experimental method.\n(§2) Intracellular Calcium Measurements:\n(§3) Chinese hamster ovary (CHO) cells expressing the human orexin-1 receptor and the human orexin-2 receptor, respectively, are grown in culture medium (Ham F-12 with L-Glutamine) containing 300 μg/ml G418, 100 U/ml penicillin, 100 μg/ml streptomycin and 10% heat inactivated fetal calf serum (FCS). The cells are seeded at 20′000 cells/well into 384-well black clear bottom sterile plates (Greiner). The seeded plates are incubated overnight at 37° C. in 5% CO2.\n(§4) Human orexin-A as an agonist is prepared as 1 mM stock solution in MeOH: water (1:1), diluted in HBSS containing 0.1% bovine serum albumin (BSA), NaHCO3: 0.375g/l and 20 mM HEPES for use in the assay at a final concentration of 3 nM.\n(§5) Antagonists are prepared as 10 mM stock solution in DMSO, then diluted in 384-well plates using DMSO followed by a transfer of the dilutions into in HBSS containing 0.1% bovine serum albumin (BSA), NaHCO3: 0.375g/l and 20 mM HEPES. On the day of the assay, 50 μl of staining buffer (HBSS containing 1% FCS, 20 mM HEPES, NaHCO3: 0.375g/l, 5 mM probenecid (Sigma) and 3 μM of the fluorescent calcium indicator fluo-4 AM (1 mM stock solution in DMSO, containing 10% pluronic) is added to each well. The 384-well cell-plates are incubated for 50 min at 37° C. in 5% CO2 followed by equilibration at RT for 30-120 min before measurement.\n(§6) Within the Fluorescent Imaging Plate Reader (FLIPR, Molecular Devices), antagonists are added to the plate in a volume of 10 μl/well, incubated for 10 min and finally 10 μl/well of agonist is added. Fluorescence is measured for each well at 1 second intervals, and the height of each fluorescence peak is compared to the height of the fluorescence peak induced by 3 nM orexin-A with vehicle in place of antagonist. For each antagonist, the IC50 value (the concentration of compound needed to inhibit 50% of the agonistic response) is determined."}, "human orexin-1 receptor": {"molecular_target": "T2, human orexin-1 receptor (Homo sapiens, UniProt O43613)", "T2 construct": "expressed in transfected cells; host or cells: CHO (Chinese hamster ovary) cells under G418 selection", "T2 sequence (O43613 1-425)": "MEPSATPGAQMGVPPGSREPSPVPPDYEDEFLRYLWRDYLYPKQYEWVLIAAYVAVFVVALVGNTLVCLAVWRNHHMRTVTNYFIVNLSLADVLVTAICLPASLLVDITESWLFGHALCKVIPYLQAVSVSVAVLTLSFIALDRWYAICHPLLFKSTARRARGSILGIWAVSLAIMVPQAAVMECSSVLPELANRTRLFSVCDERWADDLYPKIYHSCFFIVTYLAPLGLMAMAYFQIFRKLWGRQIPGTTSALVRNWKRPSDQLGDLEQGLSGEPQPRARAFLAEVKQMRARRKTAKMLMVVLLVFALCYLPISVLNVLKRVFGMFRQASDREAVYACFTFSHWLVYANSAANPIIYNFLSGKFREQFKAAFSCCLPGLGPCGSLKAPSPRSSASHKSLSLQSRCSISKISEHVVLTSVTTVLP", "experiment": "Intracellular calcium measurements (FLIPR), orexin receptor antagonistic activity", "assay_type": "cell-based", "conditions": "CHO cells expressing human orexin-1 receptor; agonist 3 nM orexin-A; read-out: OX1 IC50", "experimental": "as §1, §2, §3, §4, §5, §6"}}, "data": [{"smiles": "Cc1ccc(-c2ccccc2C(=O)N2CCC[C@@H](Nc3nccc(C(F)(F)F)n3)C2)cc1C", "note": "[Example 1, (R)-(3′,4′-Dimethyl-biphenyl-2-yl)-[3-(4-trifluoromethyl-pyrimidin-2-ylamino)-piperidin-1-yl]-methanone]", "values": [{"measurement": "IC50", "setting": "human orexin-2 receptor", "value": 43, "unit": "nM"}, {"measurement": "IC50", "setting": "human orexin-1 receptor", "value": 58, "unit": "nM"}]}, {"smiles": "COc1cc(OC)nc(N[C@@H]2CCCN(C(=O)c3ccccc3-c3ccc(C)c(C)c3)C2)n1", "note": "[Example 2, (R)-[3-(4,6-Dimethoxy-pyrimidin-2-ylamino)-piperidin-1-yl]-(3′,4′-dimethyl-biphenyl-2-yl)-methanone]", "values": [{"measurement": "IC50", "setting": "human orexin-2 receptor", "value": 10, "unit": "nM"}, {"measurement": "IC50", "setting": "human orexin-1 receptor", "value": 25, "unit": "nM"}]}, {"smiles": "Cc1ccc(-c2ccccc2C(=O)N2CCC[C@@H](Nc3cnc4ccccc4n3)C2)cc1C", "note": "[Example 6, (R)-(3′,4′-Dimethyl-biphenyl-2-yl)-[3-(quinoxalin-2-ylamino)-piperidin-1-yl]-methanone]", "values": [{"measurement": "IC50", "setting": "human orexin-2 receptor", "value": 11, "unit": "nM"}, {"measurement": "IC50", "setting": "human orexin-1 receptor", "value": 13, "unit": "nM"}]}, {"smiles": "Cc1cccc(-c2ccccc2C(=O)N2CCC[C@@H](NC(=O)c3nn(C)c4ccccc34)C2)c1", "note": "[Example 34, (R)-1-Methyl-1H-indazole-3-carboxylic acid[1-(3′-methyl-biphenyl-2-carbonyl)-piperidin-3-yl]-amide]", "values": [{"measurement": "IC50", "setting": "human orexin-2 receptor", "value": 15, "unit": "nM"}, {"measurement": "IC50", "setting": "human orexin-1 receptor", "value": 33, "unit": "nM"}]}, {"smiles": "Cc1ccc(-c2ccccc2C(=O)N2CCC[C@@H](NC(=O)c3cn(C)c4ccccc34)C2)cc1C", "note": "[Example 41, (R)-1-Methyl-1H-indole-3-carboxylic acid[1-(3′,4′-dimethyl-biphenyl-2-carbonyl)-piperidin-3-yl]-amide]", "values": [{"measurement": "IC50", "setting": "human orexin-2 receptor", "value": 25, "unit": "nM"}, {"measurement": "IC50", "setting": "human orexin-1 receptor", "value": 32, "unit": "nM"}]}]}
